The text below walks through data of the SangsterLogP compilation.

As usually defined, the logD is lipophilicity at a set pH, counting ionised and neutral species. Low values mean lower lipophilicity, high ones higher lipophilicity.

This data set in a line: method code SF, from PMID: 17665861. To be noted: pH 7.4.
In the case of `COc1ccc(C2NN=C3C2SC2(C(=O)Nc4ccccc42)N3c2ccccc2[N+](=O)[O-])cc1` (stereo not drawn), the pH-dependent lipophilicity (logD) is 1.35. In the case of `COc1ccc(C2NN=C3C2SC2(C(=O)Nc4ccccc42)N3c2ccccc2OC)cc1` (stereo not drawn), the pH-dependent lipophilicity (logD) was 1.23. Next, `COc1ccccc1N1C2=NNC(c3ccccc3)C2SC12C(=O)Nc1ccccc12` (stereo not drawn): 1.19.

Take `COc1ccccc1N1C2=NNC(c3ccc(Cl)cc3)C2SC12C(=O)Nc1ccccc12` (stereo not drawn): the pH-dependent lipophilicity (logD) stood at 1.26.

`O=C1Nc2ccccc2C12SC1C(=NNC1c1ccccc1)N2c1ccc(Cl)cc1` (stereo not drawn): the logD stood at 1.1. To `COc1ccc(C2NN=C3C2SC2(C(=O)Nc4ccccc42)N3c2cccc3ccccc23)cc1` (stereo not drawn) belongs 1.2; to `O=C1Nc2ccccc2C12SC1C(=NNC1c1ccc([N+](=O)[O-])cc1)N2c1ccccc1[N+](=O)[O-]` (stereo not drawn), 1.45. To `O=C1Nc2ccccc2C12SC1C(=NNC1c1ccccc1O)N2c1ccccc1` (stereo not drawn) belongs 1.25; to `O=C1Nc2ccccc2C12SC1C(=NNC1c1ccc([N+](=O)[O-])cc1)N2c1ccc(Cl)cc1` (stereo not drawn), 1.31. To `O=C1Nc2ccccc2C12SC1C(=NNC1c1ccccc1[N+](=O)[O-])N2c1cccc2ccccc12` (stereo not drawn) belongs 1.17; to `COc1ccccc1N1C2=NNC(c3ccccc3[N+](=O)[O-])C2SC12C(=O)Nc1ccccc12` (stereo not drawn), 1.11; to `O=C1Nc2ccccc2C12SC1C(=NNC1c1ccc([N+](=O)[O-])cc1)N2c1ccc(Br)cc1` (stereo not drawn), 1.35. On to `O=C1Nc2ccccc2C12SC1C(=NNC1c1ccccc1Cl)N2c1ccc(Cl)cc1` (stereo not drawn), for which the logD is 1.31.

The molecule `O=C1Nc2ccccc2C12SC1C(=NNC1c1ccccc1Cl)N2c1ccccc1` (stereo not drawn) yielded a log distribution coefficient (logD) of 1.22. In turn, `O=C1Nc2ccccc2C12SC1C(=NNC1c1ccccc1Cl)N2c1ccc(Br)cc1` (stereo not drawn) showed a logD of 1.45. Next, `O=C1Nc2ccccc2C12SC1C(=NNC1c1ccccc1Cl)N2c1cccc2ccccc12` (stereo not drawn): 1.21. To `O=C1Nc2ccccc2C12SC1C(=NNC1c1ccccc1Cl)N2c1ccccc1[N+](=O)[O-]` (stereo not drawn) belongs 1.17; to `COc1ccc(C2NN=C3C2SC2(C(=O)Nc4ccccc42)N3c2ccc(Cl)cc2)cc1` (stereo not drawn), 1.41; to `COc1ccc(C2NN=C3C2SC2(C(=O)Nc4ccccc42)N3c2ccc(Br)cc2)cc1` (stereo not drawn), 1.4. In turn, `O=C1Nc2ccccc2C12SC1C(=NNC1c1ccccc1O)N2c1ccc(Br)cc1` (stereo not drawn) returned a logD of 1.38. To `O=C1Nc2ccccc2C12SC1C(=NNC1c1ccccc1)N2c1ccc(Br)cc1` (stereo not drawn) belongs 1.24; to `O=C1Nc2ccccc2C12SC1C(=NNC1c1ccccc1)N2c1ccccc1[N+](=O)[O-]` (stereo not drawn), 1.14.

The molecule `COc1ccccc1N1C2=NNC(c3ccccc3O)C2SC12C(=O)Nc1ccccc12` (stereo not drawn) had a logD of 1.14.
